Marks after values point to notes of the source that are not given here.
Key:
[1] = Salt screen storage at 40° C./75% RH, XRPD form; type: physicochemical; settings: ca. 24 hours
Procedure: XRPD analysis was carried out on any isolated solids or gums as described in Example 10 below. The XRPD plate, and the isolated solids, were dried at 40° C. for ca. 24 hours and re-analyzed by XRPD. The XRPD plate was further dried at 40° C./75% RH for ca. 24 hours and XRPD analysis was repeated.
After three days, observations were recorded and solids were isolated by centrifugation. The wet solids were analyzed by XRPD. Solids were dried at 40° C. under vacuum for 72 hours and re-analyzed by XRPD. Solids were dried at 40° C./75% RH for 18 hours and re-analyzed by XRPD.

[2] = system: T47D parental and therapy-resistant cells; assay: Cell cycle by BrdU flow cytometry in therapy-resistant cells; type: cell-based, human
Procedure: The therapy resistant cells were previously incubated with abemaciclib, fulvestrant, and/or palbociclib for prolonged periods to the point of developing drug resistance. Cells were plated in Corning 6 well tissue culture treated plates. Cells were treated for 7 days. Media was spiked with 10 μM BrdU prior to collection. Cells were washed in PBS, trypsinized, collected and centrifuged at 300 RCF for 5 mins. Cells were resuspended in cell culture media and transferred into a 96 well V-bottom plate with roughly 300,000 cells per well. Cells were then stained using the Near-IR Fixable Viability Stain (Invitrogen Cat. L34976) for 20 mins at room temperature, protected from light. Cells were fixed and permeabilized using eBioscience FoxP3/Transcription Factor Staining Buffer Set (Cat. 00-5523-00). DNA was denatured using 2N HCl+0.5% (v/v) Triton X-100 for 30 mins room temperature, agitating every 5-10 mins. The acid was neutralized using 0.1M Na2B4O7·10H2O (pH 8.5) followed by 0.5% BSA in PBS. Cells were then stained with BrdU antibody (Clone 3D4, BioLegend Cat. 364118) for 1 hour at room temperature. Prior to acquisition on the BD A3 Symphony, DNA was stained for 30 minutes using FxCycle Violet ReadyFlow Reagent.
Cell staining was then conducted to monitor cellular proliferation and perform cell cycle analysis of these therapy-resistant cells. […] Similarly, abemaciclib- and fulvestrant-resistant (LYFR) cells administered abemaciclib and fulvestrant were not substantially arrested in the G1 phase (FIG. 147H).

[3] = system: H526 cells; assay: CellTiter Glo cell proliferation assay (single agent and chemotherapy combination); type: cell-based, human; settings: 6 days
Procedure: (§1) Plates returned to incubator for six additional days. On day six post dosing, plates were removed and treated with CellTiter Glo reagent following manufacturer's specifications. Plates incubated 45 minutes at room temperature and run on a Biotek luminometer with 1 sec/well detection. Results were converted to Microsoft Excel and transferred to GraphPad Prism for analysis.
Cells were plated at 250 cells per well in white wall/clear bottom plates and incubated overnight. […] Plates returned to the incubator for six additional days. On day six post dosing, plates were removed and treated with CellTiter Glo reagent following manufacturer's specifications. Plates incubated 45 minutes at room temperature and run on a Biotek luminometer with 1 sec/well detection. Results were converted to Microsoft Excel and transferred to GraphPad Prism for analysis.
(§2) Dose curves ranged from 300 pM to 10 μM in triplicate and treatments lasted for 6 days. Plates were removed from incubator at each specified timepoint and treated with CellTiter-Glo (Promega, Inc) following manufacturer specifications. Plates were then read on CLARIOstar luminometer with 1 sec/well integration.
as §2, with “integration. Results were converted to Microsoft Excel and transferred to GraphPad Prism for Analysis.” for “integration.”

[4] = system: H69 (NCIH69) cells; assay: as above; type: cell-based, human; settings: 6 days
Procedure: as §1, §2
as §2, with “integration. Results were converted to Microsoft Excel and transferred to GraphPad Prism for Analysis.” for “integration.”

[5] = system: SHP77 cells; assay: as above; type: cell-based, human; settings: 6 days
Procedure: as §1, §2
as §2, with “integration. Results were converted to Microsoft Excel and transferred to GraphPad Prism for Analysis.” for “integration.”

[6] = system: T47D human breast carcinoma cells; assay: Crystal violet colony assay; type: cell-based; settings: 300 nM, weeks 2-8
Procedure: (§3) The T47D human breast carcinoma cell line was grown in RPMI-1640/1× Glutamax/1× Insulin/10% fetal bovine serum and was plated at 10,000 cells/well in Corning 6-well tissue culture treated plates. Cells were incubated at 37° C. for 24 hours prior to addition of treatment. […] Plates were collected at week 2 and 3, at week 3, 2 plates with only palbociclib were switched to combination treatment. The remaining plates were collected at weeks 5 and 8. Collection was performed by washing wells with PBS before incubating 5 minutes with 0.1% crystal violet/20% methanol. Dye was removed and wells washed 4 times with PBS before being scanned at 1200 dpi. Image J was used to count the % area and colony size for each well (FIG. 8F-I). GraphPad Prism was used for analysis. Cells treated with DMSO control retained large colonies that inhabited the majority of the well surface area from week 3 beyond (FIG. 8F).
as §3, with “6 well tissue culture treated plates. The BT474 human breast carcinoma cell line was grown in DMEM/1× Glutamax/1× Insulin/10% fetal bovine serum and was plated at 25,000 cells/well in Corning 6 well” for “6-well”, “CDK4/6i” for “palbociclib”, “well. Graph pad” for “well (FIG. 8F-I). GraphPad Prism”, “analysis.” for “analysis. Cells treated with DMSO control retained large colonies that inhabited the majority of the well surface area from week 3 beyond (FIG. 8F).”
The T47D human breast carcinoma cell line was grown in RPMI-1640/1× Glutamax/1× Insulin/10% fetal bovine serum and was plated at 10,000 cells/well in Corning 6 well tissue culture treated plates. Cells were incubated at 37° C. for 24 hours prior to addition of treatment. […] Plates were collected at weeks 2 and 3. Collection was performed by washing wells with PBS before incubating 5 minutes with 0.1% crystal violet/20% methanol. Dye was removed and wells washed 4 times with PBS before being scanned at 1200 dpi. Image J was used to count the percent area and colony size for each well and Graph pad was used for analysis.

Compound: Br.NS(=O)(=O)c1ccc(Nc2ncc3cc4n(c3n2)C2(CCCCC2)C(=O)NN4)cc1 [HBr Pattern 1]
- XRPD form after storage at 40° C./75% RH [1]: loss of crystallinity

Compound: Cl.NS(=O)(=O)c1ccc(Nc2ncc3cc4n(c3n2)C2(CCCCC2)C(=O)NN4)cc1 [HCl Pattern 2]
- XRPD form after storage at 40° C./75% RH [1]: No form changes were observed

Compound: CCN1CCN(Cc2ccc(Nc3ncc(F)c(-c4cc(F)c5nc(C)n(C(C)C)c5c4)n3)nc2)CC1 [abemaciclib, reference compound]
- cell cycle arrest ([2]; abemaciclib-resistant (LYR) cells): substantially less frequently in the G1 phase
- cell cycle arrest ([2]; parental (PAR) cells): arrested parental (PAR) cell lines in the G1 phase

Compound: NS(=O)(=O)c1ccc(Nc2ncc3cc4n(c3n2)C2(CCCCC2)C(=O)NN4)cc1.O=S(=O)(O)c1ccccc1 [besylate Pattern 3]
- XRPD form after storage at 40° C./75% RH [1]: loss in crystallinity

Compound: CC[C@@]1(O)C(=O)OCc2c1cc1n(c2=O)Cc2cc3ccccc3nc2-1 [camptothecin, (S)-4-ethyl-4-hydroxy-1H-pyrano[3′,4′:6,7]indolizino[1,2-b]quinoline-3,14-(4H, 12H)-dione, reference compound]
- cellular proliferation, chemotherapeutic alone compared with Compound I alone [3]: lower cellular proliferation IC50 values
- cellular proliferation, chemotherapeutic alone compared with Compound I alone [4]: lower cellular proliferation IC50 values
- cellular proliferation, chemotherapeutic alone compared with Compound I alone [5]: lower cellular proliferation IC50 values

Compound: NS(=O)(=O)c1ccc(Nc2ncc3cc4n(c3n2)C2(CCCCC2)C(=O)NN4)cc1.O=C(O)CC(O)(CC(=O)O)C(=O)O [citrate Pattern 1]
- XRPD form after storage at 40° C./75% RH ([1]; listed as Citric Acid Salt Pattern 1): poorly crystalline material

Compound: NS(=O)(=O)c1ccc(Nc2ncc3cc4n(c3n2)C2(CCCCC2)C(=O)NN4)cc1.O=C(O)CC(O)(CC(=O)O)C(=O)O [citrate Pattern 2]
- XRPD form after storage at 40° C./75% RH ([1]; listed as Citric Acid Salt Pattern 2): new poorly crystalline pattern designated Pattern 4

Compound: COc1cccc2c1C(=O)c1c(O)c3c(c(O)c1C2=O)C[C@@](O)(C(=O)CO)C[C@@H]3O[C@H]1C[C@H](N)[C@H](O)[C@H](C)O1 [doxorubicin, reference compound]
- cellular proliferation, chemotherapeutic alone compared with Compound I alone [3]: better inhibition
- cellular proliferation, chemotherapeutic alone compared with Compound I alone [4]: better inhibition
- cellular proliferation, chemotherapeutic alone compared with Compound I alone [5]: better inhibition

Compound: NS(=O)(=O)c1ccc(Nc2ncc3cc4n(c3n2)C2(CCCCC2)C(=O)NN4)cc1.O=C(O)/C=C\C(=O)O [maleate Pattern 2]
- XRPD form after storage at 40° C./75% RH ([1]; listed as Maleic Acid Salt Pattern 2): loss of crystallinity

Compound: NS(=O)(=O)c1ccc(Nc2ncc3cc4n(c3n2)C2(CCCCC2)C(=O)NN4)cc1.O=C(O)/C=C\C(=O)O [maleate Pattern 4]
- XRPD form after storage at 40° C./75% RH ([1]; listed as Maleic Acid Salt Pattern 4): converted to Pattern 6

Compound: NS(=O)(=O)c1ccc(Nc2ncc3cc4n(c3n2)C2(CCCCC2)C(=O)NN4)cc1.O=C(O)/C=C\C(=O)O [maleate Pattern 5]
- XRPD form after storage at 40° C./75% RH ([1]; listed as Maleic Acid Salt Pattern 5): converted to Pattern 1*

Compound: CS(=O)(=O)O.NS(=O)(=O)c1ccc(Nc2ncc3cc4n(c3n2)C2(CCCCC2)C(=O)NN4)cc1 [mesylate Pattern 2]
- XRPD form after storage at 40° C./75% RH [1]: converted to Pattern 1

Compound: CS(=O)(=O)O.NS(=O)(=O)c1ccc(Nc2ncc3cc4n(c3n2)C2(CCCCC2)C(=O)NN4)cc1 [mesylate Pattern 3]
- XRPD form after storage at 40° C./75% RH [1]: converted to Pattern 1

Compound: CS(=O)(=O)O.NS(=O)(=O)c1ccc(Nc2ncc3cc4n(c3n2)C2(CCCCC2)C(=O)NN4)cc1 [mesylate Pattern 4]
- XRPD form after storage at 40° C./75% RH [1]: converted to Pattern 1

Compound: CC(=O)c1c(C)c2cnc(Nc3ccc(N4CCNCC4)cn3)nc2n(C2CCCC2)c1=O [palbociclib, reference compound]
- colony size and percent plate area [6]: cells expanded to cover a large percentage of the plate area

Compound: NS(=O)(=O)c1ccc(Nc2ncc3cc4n(c3n2)C2(CCCCC2)C(=O)NN4)cc1.O=P(O)(O)O [phosphate Pattern 6]
- XRPD form after storage at 40° C./75% RH [1]: formation of amorphous material
- XRPD form after storage at 40° C./75% RH ([1]; listed as Phosphoric Acid Salt Pattern 6): amorphous material
